# Experimental data taken from US9045551B2, “Anti-DLL4/VEGF dual variable domain immunoglobulin and uses thereof” (AbbVie Inc., priority 2012, dated 2015).
# Marks after values point to notes of the source that are not given here.
# What was measured:
# [1] = test system: HT-29 human colon xenograft tumors; experiment: HT-29 colon xenograft, combination with irinotecan; assay type: in vivo, female SCID mice; conditions: 60 mg/kg IP, q3dX4
# Experimental: The effect of anti-DLL4-VEGF DVD-Igs in combination with chemotherapy on tumor growth was evaluated on HT-29 human colon xenograft tumors in female SCID mice. Briefly, 2×10^6 cells were inoculated subcutaneously into the right hind flank. Tumors were allowed to establish for 25 days, at which point tumor volume was determined using electronic caliper measurements using the formula: L×W^2/2. Mice were allocated into treatment groups (n=10 per group) so that each cohort had equivalent mean tumor volume of 209 mm^3 prior to initiation of therapy. Animals were dosed with irinotecan and/or anti-DLL4-VEGF DVD-Ig, at the dose and schedule in Table 29. Tumor volume was measured twice a week for the duration of the experiment.
# [2] = test system: SW-48 human colon xenograft tumors; experiment: SW-48 colon xenograft, combination with irinotecan; assay type: in vivo, female SCID mice; conditions: 60 mg/kg IP, q3dX4
# Experimental: (§1) The effect of anti-DLL4-VEGF DVD-Igs in combination with chemotherapy on tumor growth was evaluated on SW-48 human colon xenograft tumors in female SCID mice. Briefly, 5×10^6 cells were inoculated subcutaneously into the right hind flank. Tumors were allowed to establish for 13 days, at which point tumor volume was determined using electronic caliper measurements using the formula: L×W^2/2. Mice were allocated into treatment groups (n=10 per group) so that each cohort had equivalent mean tumor volume of 211 mm^3 prior to initiation of therapy. Animals were dosed with irinotecan, anti-VEGF mAb, and/or anti-DLL4-VEGF DVD-Ig at the dose and schedule in Table 27. Tumor volume was measured twice a week for the duration of the experiment.
# [3] = test system: U87-MG human glioblastoma xenograft tumors; experiment: U87-MG glioblastoma xenograft, combination with Temozolomide (Example 6); assay type: in vivo, female SCID mice; conditions: 5 mg/kg IP
# Experimental: The effect of anti-DLL4/anti-VEGF DVDs in combination with chemotherapy on tumor growth was evaluated on U87-MG human glioblastoma xenograft tumors in female SCID mice. Briefly, 3×10^6 cells were inoculated subcutaneously into the right hind flank. Tumors were allowed to establish for 22 days, at which point tumor volume was determined using electronic caliper measurements using the formula: L×W^2/2. Mice were allocated into treatment groups (n=10 per group) so that each cohort had equivalent mean tumor volume of 207 mm^3 prior to initiation of therapy. Animals were dosed intraperitoneally with a single dose of Temozolomide® and/or four weekly doses of anti-DLL4/anti-VEGF DVD, with tumor volume measured twice a week for the duration of the experiment.
# [4] = test system: U87-MG human glioblastoma xenograft tumors; experiment: U87-MG glioblastoma xenograft, combination with temozolomide (Example 11); assay type: in vivo, female SCID mice; conditions: 5 mg/kg IP, qdX1
# Experimental: as §1, with “U87-MG” for “SW-48”, “glioblastoma” for “colon”, “3×10^6” for “5×10^6”, “207” for “211”, “temozolomide,” for “irinotecan,”, “30.” for “27.”
# [5] = test system: PA0123 patient-derived human pancreatic xenograft tumors; experiment: PA0123 patient-derived pancreatic xenograft, combination with gemcitabine; assay type: in vivo, female NSG mice; conditions: 100 mg/kg IP, [q3dX4]X2
# Experimental: The effect of anti-DLL4-VEGF DVD-Igs in combination with chemotherapy on tumor growth was evaluated on PA0123 patient-derived human pancreatic xenograft tumors in female NSG mice. Briefly, frozen tumor fragments were implanted subcutaneously into the right hind flank. Tumors were allowed to establish for 28 days, at which point tumor volume was determined using electronic caliper measurements using the formula: L×W^2/2. Mice were allocated into treatment groups (n=7 per group) so that each cohort had equivalent mean tumor volume of 193 mm^3 prior to initiation of therapy. Animals were dosed with gemcitabine and/or anti-DLL4-VEGF DVD-Ig, at the dose and schedule in Table 31. Tumor volume was measured twice a week for the duration of the experiment.
# [6] = test system: SUM149PT human breast xenograft tumors; experiment: SUM149PT breast xenograft, combination with paclitaxel (Table 33); assay type: in vivo, female SCID mice; conditions: 25 mg/kg IP, [q4dX3]X4
# Experimental: (§2) The effect of anti-DLL4-VEGF DVD-Igs in combination with chemotherapy on tumor growth was evaluated on SUM149PT human breast xenograft tumors in female SCID mice. Briefly, 1×10^6 cells were inoculated subcutaneously into the right hind flank. Tumors were allowed to establish for 28 days, at which point tumor volume was determined using electronic caliper measurements using the formula: L×W^2/2. Mice were allocated into treatment groups (n=9 per group) so that each cohort had equivalent mean tumor volume of 183 mm^3 prior to initiation of therapy. Animals were dosed with paclitaxel and/or anti-DLL4-VEGF DVD-Ig, at the dose and schedule in Table 33. Tumor volume was measured twice a week for the duration of the experiment.
# [7] = test system: MDA-MB-231-luc human breast xenograft tumors; experiment: MDA-MB-231-luc breast xenograft, combination with paclitaxel; assay type: in vivo, female SCID mice; conditions: 25 mg/kg IP, q4dX3
# Experimental: The effect of anti-DLL4-VEGF DVD-Igs in combination with chemotherapy on tumor growth was evaluated on MDA-MB-231-luc human breast xenograft tumors in female SCID mice. Briefly, 2×10^6 cells were implanted in the mammary fat pad. Tumors were allowed to establish for 13 days, at which point tumor volume was determined using electronic caliper measurements using the formula: L×W^2/2. Mice were allocated into treatment groups (n=10 per group) so that each cohort had equivalent mean tumor volume of 150 mm^3 prior to initiation of therapy. Animals were dosed with paclitaxel and/or anti-DLL4-VEGF DVD-Ig, at the dose and schedule in Table 32. Tumor volume was measured twice a week for the duration of the experiment. Additionally, bioluminescent images were acquired to monitor and track spontaneous metastasis of cancer cell to the lung and/or lymph nodes Results are shown in Table 32.
# [8] = test system: SUM149PT human breast xenograft tumors; experiment: SUM149PT breast xenograft, combination with paclitaxel and anti-VEGF mAb (Table 34); assay type: in vivo, female SCID mice; conditions: 25 mg/kg IP, [q4dX3]X4; day 18 post size match
# Experimental: as §2, with “25” for “28”, “(n=10” for “(n=9”, “228” for “183”, “paclitaxel, anti-VEGF mAb” for “paclitaxel”, “34.” for “33.”
# [9] = target: T1, human DLL4529 (Homo sapiens, UniProt Q9NR61); experiment: BIACORE surface plasmon resonance binding kinetics, human DLL4; conditions: BIAcore human DLL4529, 25° C.
# T1 construct: a purified recombinant DLL4 extracellular domain (ECD)
# Experimental: A BIACORE assay (Biacore, Inc, Piscataway, N.J.) was used to evaluate the binding of DVDs to a purified recombinant DLL4 extracellular domain (ECD) or to VEGF165, as determined by surface plasmon resonance-based measurements made on a Biacore 2000, Biacore 3000 or Biacore T100 (GE Healthcare, Piscataway, N.J.) at 25° C. For DLL4 binding kinetic measurements the assay buffer was HBS-EPB: 10 mM Hepes, pH7.5, 150 mM NaCl, 3 mM EDTA, 0.005% Tween 20, 0.1 mg/ml BSA (Sigma A7906). For VEGF binding kinetic measurements the assay buffer was HBS-EP+(3N01B): 10 mM Hepes, pH7.5, 300 mM NaCl, 3 mM EDTA, 0.05% Tween 20, 0.1 mg/ml BSA (Sigma A7906). For example, approximately 9000 RU of goat anti-human Fc specific polyclonal antibody (Thermo Fisher Scientific Inc., Rockford, Ill.) diluted in 10 mM sodium acetate (pH 4.5) is directly immobilized across a CM5 research grade biosensor chip using a standard amine coupling kit according to manufacturer's instructions and procedures at 25 ug/ml. […] The equilibrium dissociation constant KD (M) of the reaction between antibodies and the target antigen is then calculated from the kinetic rate constants by the following formula: KD=Koff/Kon. Binding is recorded as a function of time and kinetic rate constants are calculated. In this assay, on-rates as fast as 10^6 M^−1s^−1 and off-rates as slow as 10^−6 s^−1 can be measured.
molecule,measurement,setting,value
"CCc1c2c(nc3ccc(OC(=O)N4CCC(N5CCCCC5)CC4)cc13)-c1cc3c(c(=O)n1C2)COC(=O)[C@]3(O)CC [irinotecan, reference compound]",% TGI (Percent tumor growth inhibition),[1]; day 20 post size match,47* %
same,% TGD (Percent tumor growth delay),[1]; endpoint of 1000 mm^3,60* %
same,% TGI (Percent tumor growth inhibition),[2]; day 18 post size match,77*** %
same,% TGD (Percent tumor growth delay),[2]; endpoint of 1000 mm^3,106*** %
"Cn1nnc2c(C(N)=O)ncn2c1=O [Temozolomide, reference compound]",% TGI (Percent tumor growth inhibition),"[3]; qdX1, day 19 post size match",65*** %
same,% TGD (Percent tumor growth delay),"[3]; qdX1, endpoint of 1000 mm^3",45*** %
same,% TGI (Percent tumor growth inhibition),[4]; day 19 post size match,65*** %
same,% TGD (Percent tumor growth delay),[4]; endpoint of 1000 mm^3,45*** %
"Nc1ccn([C@@H]2O[C@H](CO)[C@@H](O)C2(F)F)c(=O)n1 [gemcitabine, reference compound]",% TGI (Percent tumor growth inhibition),[5]; day 38 post size match,48** %
same,% TGD (Percent tumor growth delay),[5]; endpoint of 1000 mm^3,43** %
"CC(=O)O[C@H]1C(=O)[C@@]2(C)[C@H]([C@H](OC(=O)c3ccccc3)[C@]3(O)C[C@H](OC(=O)[C@H](O)[C@@H](NC(=O)c4ccccc4)c4ccccc4)C(C)=C1C3(C)C)[C@]1(OC(C)=O)CO[C@@H]1C[C@@H]2O [paclitaxel, reference compound]",% TGI (Percent tumor growth inhibition),[6]; day 22 post size match,60*** %
same,% TGD (Percent tumor growth delay),[6]; endpoint of 1000 mm^3,173*** %
same,% met incidence (Percent of animals with detectable signal in the lung and/or lymph nodes),"[7]; bioluminescent imaging, day 22 post size match, treatment control group 100%",40* %
same,% TGI (Percent tumor growth inhibition),[7]; day 15 post size match,78*** %
same,% TGD (Percent tumor growth delay),[7]; endpoint of 1000 mm^3,106*** %
same,% TGI (Percent tumor growth inhibition),[8],50* %
"h1A11.1: humanized anti-DLL4 mAb, parent antibody; VH SEQ ID NO: 39, VL SEQ ID NO: 40 (antibody, V domains shown) VH: EVQLVESGGGLVQPGGSLRLSCAASGFTFSNFPMAWVRQAPGKGLEWVATISSSDGTTYYRDSVKGRFTISRDNAKNSLYLQMNSLRAEDTAVYYCARGYYNSPFAYWGQGTLVTVSS VL: DIQMTQSPSSLSASVGDRVTITCRASEDIYSNLAWYQQKPGKAPKLLIYDTNNLADGVPSRFSGSGSGTDFTLTISSLQPEDFATYYCQQYNNYPPTFGQGTKLEIKR",Koff,[9],0.00193 s⁻¹
same,Kon,[9],160000 M⁻¹ s⁻¹
